The test system of assay [1] is right double atrial preparations. Briefly: Heart rate (chronotropic) response of atrial preparations to carbachol. Further details: species or system rat. The method, then: Sutures (Ethicon, 5/0 mersilk) were placed at the lateral edges of both atria and the preparation was transferred to a pre-heated (37±0.1° C.) water-jacketed organ bath containing 100 ml of continuously oxygenated Tyrode's solution. The atria were vertically mounted with the suture in the left atrium connected to a stainless steel hook and the suture in the right atrium attached to an isometric force transducer (Harvard Apparatus, Model 60-2997, Mass. USA) connected to an amplifier. Heart rate was triggered from contraction and recorded in real time (Biopac MP100 with Acqknowledge software).
Preparations were equilibrated in Tyrode's solution for 60-90 minutes at 37° C. until a stable baseline heart rate was achieved. The right vagus was placed through a pair of custom-built platinum ring electrodes and stimulated at 3, 5, 7 and 10 Hz (15 V, 1 ms pulse duration; order of stimulations randomised) for 25 seconds, with an interval of at least 1 minute between successive stimulations. In some experiments vagal stimulation was repeated after application of the NO donor sodium nitroprusside (SNP; 20 μmol/L, 10 minutes incubation; Sigma). In addition, muscarinic responsiveness of atrial preparations was assessed using cumulative concentration-response curves to carbachol (0.1-0.5 μmol/L; Sigma; 2 minutes incubation at each concentration).

The subject of a further assay is cGMP. Nature of the assay: cGMP efflux concentration in perfused right atrial preparation. The arrangement: species or system rat. The note with it: 0.3 μmol/L, SHR vs WKY. The method, then:
Isolated, perfused, beating atria were prepared by previously described method33,34. In brief, the right rat atrium was dissected from the heart after the animal was killed. A cannula containing 2 small catheters sealed within it was inserted into the atrium and secured by ligatures. The outer tip of the atrial cannula was open to allow for outflow. The cannulated atrium was transferred to a preheated (36.5 […]), continuously oxygenated, waterjacketed organ chamber, immediately perfused with oxygenated Tyrode's solution by means of a peristaltic pump (0.5 ml/min).
The atria were perfused for 60 minutes to stabilize. […]
The radioactivity of [^3H]inulin in atrial perfusate was measured with a liquid scintillation counter, and the amount of ECF translocated through the atrial wall was caculated, the amount of ECF translocated through the atrial wall was calculated as: ECF translocated (μl/min/g atrial wet wt)=total radioactivity in the perfusate (cpm/min)×1000/radioactivity in the pericardial reservoir (cpm/μl)×atrial wet wt (mg).
For measurement of cGMP concentration in perfusate, 500 μl of the perfusate was treated with trichloroacetic acid to a final concentration of 6% for 15 minutes at room temperature and centrifuged at 4° C. […] The amount of cGMP efflux was expressed as pmol cGMP/min/g atrial tissue. […]

The subject of another assay is isolated right atrium. The arrangement: species or system SD rat. The note with it: 100 μM, Ad.PRS-nNOS treated atria, n=6.
The test system of a further assay is isolated right atria. Briefly: Evoked [3H]NE release from isolated right atria of SHR and WKY five days after percutaneous gene transfer. The note with it: 10 μmol/L. Further details: species or system rat.
The test system of the next assay is isolated atria. Briefly: [3H]ACh release from isolated atria on field stimulation. The arrangement: species or system rat. Conditions: 10 μmol/L, 5 Hz field stimulation, WKY.

This is an account of results in patent publication US20070071725A1, “Nitric oxide synthase gene transfer” (priority 2002, published 2007).

“Also recorded” adds a separate entry of the source.

Description for isolated atria: Animals were killed and the right atria removed as described above. The preparation was then transferred to a preheated (37 ??0.2 ?C), continuously oxygenated, water-jacketed organ bath containing 4 ml of Tyrode's solution where the atrium was pinned flat between two parallel silver stimulating electrodes 10 mm apart. […] After a 45 minutes equilibration period (where the Tyrode's solution was replaced every 15 minutes), the atrium was stimulated at 5 Hz (15V, 1 ms pulse duration) for one minute and then again after another minute to stimulate acetylcholine turnover. […]
Following the wash period superfusion was stopped and the bath solution replaced every 3 minutes with a 0.5 ml sample being taken on every change of solution. This sample was added to 4.5 ml of scintillation fluid (Ecoscint A, National Diagnostics) and the amount of radioactivity in each sample (disintegrations per minute) measured using a liquid scintillation counter (Tri-carb 2800TR, Packard). […] At the end of the experiment, the atrium was immersed overnight in Tyrode's solution containing 4 U/ml papain (Sigma) and the radioactivity contained in the extract determined. [3H] outflow was expressed as a percentage of the total radioactivity in the atrium at the end of the experiment and that released after superfusion.

For `C[N+](C)(C)CCOC(N)=O` [CCh, carbachol], the results for the “heart rate response, SHR compared to WKY” value in assay [1] (0.1 μmol/L), in assay [1] (0.2 μmol/L) and in assay [1] (0.5 μmol/L) were “significantly increased heart rate response in SHR compared to WKY”, “No significantly changed” and “significantly increased heart rate response in SHR compared to WKY”, respectively. The cGMP efflux concentration result in the assay on cGMP is “significantly increased cGMP efflux concentration in the SHR”.

Regarding `NC(=NCCC[C@H](N)C(=O)O)N[N+](=O)[O-]` [L-NNA, Nω-Nitro-Larginine], in the assay with isolated right atrium, the “effect on Ad.PRS-nNOS-induced attenuation of NE release” value is given as “prevented the Ad.PRS-nNOS-induced attenuation of NE release; also recorded: reverse this response”.

For the compound `O=c1onc2cnc3ccccc3n12` [ODQ, 1H-(1,2,4)oxadiazolo(4,3-a)quinoxaline-1-one], the “effect on NE release” value is listed as “did not effect” in the assay on isolated right atria (Ad.PRS-eGFP treated SHR) and “significantly enhanced” with isolated right atria (Ad.PRS-nNOS or Ad.PRS-eGFP treated WKY atria). The “effect on Ad.PRS-nNOS attenuation of NE release” value with isolated right atria (Ad.PRS-nNOS treated SHR) was “reversed”. Also, in the assay on isolated atria, the “effect on [3H]ACh release” value is listed as “significantly enhanced”.
